For 32 compounds, IC50 results are on record in ChEMBL document CHEMBL3774360, “Potent multitarget FAAH-COX inhibitors: Design and structure-activity relationship studies” (Eur J Med Chem, 2016).

SMILES strings stand for the structures. Bounds are passed on as bounds.

The target in test [1] is T1, Prostaglandin G/H synthase 2 (Homo sapiens, UniProt P35354).
T1 sequence (P35354 whole entry): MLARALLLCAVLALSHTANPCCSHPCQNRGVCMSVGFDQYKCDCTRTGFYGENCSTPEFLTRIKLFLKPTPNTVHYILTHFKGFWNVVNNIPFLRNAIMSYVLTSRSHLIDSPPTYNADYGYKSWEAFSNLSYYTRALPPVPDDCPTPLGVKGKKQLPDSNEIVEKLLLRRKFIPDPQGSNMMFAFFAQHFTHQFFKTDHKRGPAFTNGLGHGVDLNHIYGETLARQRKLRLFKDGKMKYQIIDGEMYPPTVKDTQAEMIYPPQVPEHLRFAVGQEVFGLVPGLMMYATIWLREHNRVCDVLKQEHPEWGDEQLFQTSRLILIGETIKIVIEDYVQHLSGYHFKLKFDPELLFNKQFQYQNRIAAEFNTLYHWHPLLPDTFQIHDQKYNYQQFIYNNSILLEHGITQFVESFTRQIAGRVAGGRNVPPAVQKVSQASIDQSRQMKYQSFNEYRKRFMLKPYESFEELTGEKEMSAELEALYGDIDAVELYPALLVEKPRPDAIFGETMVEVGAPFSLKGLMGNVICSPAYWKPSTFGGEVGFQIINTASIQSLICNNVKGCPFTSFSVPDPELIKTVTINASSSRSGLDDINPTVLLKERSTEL
In words: Inhibition of recombinant human COX2 assessed as production of PGF2-alpha preincubated with compound followed by the addition of 5 uM arachidonic acid as substrate by enzyme immunoassay.

Test [2] deals with T2, Fatty-acid amide hydrolase 1 (Rattus norvegicus, UniProt P97612).
T2 sequence (P97612 whole entry): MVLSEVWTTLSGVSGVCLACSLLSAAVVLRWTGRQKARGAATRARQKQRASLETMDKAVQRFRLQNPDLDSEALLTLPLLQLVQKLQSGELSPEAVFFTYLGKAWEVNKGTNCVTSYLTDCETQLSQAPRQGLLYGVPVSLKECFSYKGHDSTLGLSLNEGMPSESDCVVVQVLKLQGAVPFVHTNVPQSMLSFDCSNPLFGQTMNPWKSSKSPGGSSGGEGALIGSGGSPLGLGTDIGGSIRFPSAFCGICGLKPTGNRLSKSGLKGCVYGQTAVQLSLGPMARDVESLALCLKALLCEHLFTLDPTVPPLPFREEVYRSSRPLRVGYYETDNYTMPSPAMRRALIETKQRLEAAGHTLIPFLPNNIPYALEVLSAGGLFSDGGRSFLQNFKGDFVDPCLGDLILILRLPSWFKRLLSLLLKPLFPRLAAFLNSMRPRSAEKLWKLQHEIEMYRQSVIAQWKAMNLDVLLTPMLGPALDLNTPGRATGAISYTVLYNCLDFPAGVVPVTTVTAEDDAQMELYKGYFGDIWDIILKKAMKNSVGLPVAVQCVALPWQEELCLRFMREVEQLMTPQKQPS
Briefly: Inhibition of FAAH in Sprague-Dawley rat brain homogenates preincubated for 10 mins followed by addition of substrate measured after 30 mins by liquid scintillation counting. It counts as tissue-based.

Test [3] has as its target T3, Prostaglandin G/H synthase 1 (Ovis aries, UniProt P05979).
T3 sequence (P05979 whole entry): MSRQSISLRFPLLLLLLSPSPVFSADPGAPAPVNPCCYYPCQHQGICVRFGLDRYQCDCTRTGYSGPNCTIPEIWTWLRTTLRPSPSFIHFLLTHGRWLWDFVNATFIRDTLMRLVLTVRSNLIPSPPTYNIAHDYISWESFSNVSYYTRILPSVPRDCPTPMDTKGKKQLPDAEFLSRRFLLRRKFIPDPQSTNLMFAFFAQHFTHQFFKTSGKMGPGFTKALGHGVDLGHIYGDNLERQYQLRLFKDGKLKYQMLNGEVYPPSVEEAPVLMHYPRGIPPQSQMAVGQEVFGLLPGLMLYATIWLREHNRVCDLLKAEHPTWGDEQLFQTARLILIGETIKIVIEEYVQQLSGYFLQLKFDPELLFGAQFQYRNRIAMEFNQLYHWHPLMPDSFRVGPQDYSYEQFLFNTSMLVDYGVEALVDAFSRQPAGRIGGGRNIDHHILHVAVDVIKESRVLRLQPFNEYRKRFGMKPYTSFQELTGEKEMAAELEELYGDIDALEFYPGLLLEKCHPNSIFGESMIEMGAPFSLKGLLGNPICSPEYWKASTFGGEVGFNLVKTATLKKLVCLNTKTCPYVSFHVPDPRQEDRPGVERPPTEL
In words: Inhibition of ovine COX1 assessed as production of PGF2-alpha preincubated with compound followed by the addition of 5 uM arachidonic acid as substrate by enzyme immunoassay.

Usually IC50 stands for the midpoint of a concentration-inhibition curve. Regarding `CCCCNC(=O)Oc1cccc(-c2ccc(C(C)C(=O)O)cc2F)c1` (racemic), the IC50 in test [1] is greater than 100 µM.

Regarding `CC(C)CNC(=O)Oc1cccc(-c2ccc(C(C)C(=O)O)cc2F)c1` (racemic), the IC50 in test [1] was greater than 100 µM; in test [2], 4100 nM.

Turning to `CCCCCCNC(=O)Oc1cccc(-c2ccc(C(C)C(=O)O)cc2C)c1` (racemic), the values for the IC50 in test [3], in test [1] and in test [2] were 11 nM, 1.4 µM and 10 nM, respectively.

As for `CC(C(=O)O)c1ccc(-c2cccc(OC(=O)NCCc3ccccc3)c2)c(F)c1` (racemic), in test [1], the IC50 is greater than 100 µM.

For the compound `CCCCCCNC(=O)Oc1cccc(-c2ccc([C@@H](C)C(=O)O)cc2F)c1`, in test [3], the IC50 was 4000 nM.

On to `CC(C(=O)O)c1ccc(-c2cccc(OC(=O)NCc3ccccc3)c2)c(F)c1` (racemic), for which the IC50 in test [1] is greater than 100 µM.

On to `CCCCCCNC(=O)Oc1cccc(-c2ccc(C(C)C(=O)O)cc2O)c1` (racemic), for which the IC50 in test [3] was found to be 650 nM; in test [1], 13 µM; in test [2], 35 nM.

Regarding `CCCCCCCCNC(=O)Oc1cccc(-c2ccc(C(C)C(=O)O)cc2F)c1` (racemic), the IC50 in test [2] stood at 3 nM.

With `CC(C(=O)O)c1ccc(-c2cccc(OC(=O)NC3CC3)c2)c(F)c1` (racemic), the IC50 is 5400 nM in test [3], 74.3 µM in test [1] and greater than 100000 nM in test [2].

Regarding `CCCCCCNC(=O)Nc1cccc(-c2ccc(C(C)C(=O)O)cc2F)c1` (racemic), the IC50 in test [3] worked out at 14 nM; in test [1] it was 0.56 µM; in test [2], 88400 nM.

On to `CCCCCCNC(=O)Oc1ccccc1-c1ccc(C(C)C(=O)O)cc1F` (racemic), for which, in test [1], the IC50 was greater than 100 µM.

In the case of `CCCNC(=O)Oc1cccc(-c2ccc(C(C)C(=O)O)cc2F)c1` (racemic), the IC50 in test [3] was 1650 nM; in test [1] it was greater than 100 µM; in test [2] it was greater than 100000 nM.

As for `CC(C(=O)O)c1ccc(-c2cccc(OC(=O)NC3CCCC3)c2)c(F)c1` (racemic), the IC50 in test [1] was greater than 100 µM.

`CCCCCCNC(=O)Oc1cccc(-c2ccc(C)cc2F)c1`: the IC50 is greater than 100000 nM in test [3], greater than 100 µM in test [1] and 26 nM in test [2].

In the case of `CCNC(=O)Oc1cccc(-c2ccc(C(C)C(=O)O)cc2F)c1` (racemic), the IC50 in test [3] was 2100 nM; in test [1], greater than 100 µM; in test [2] it was greater than 100000 nM.

On to `CC(C(=O)O)c1ccc(-c2cccc(OC(=O)NCCCCc3ccccc3)c2)c(F)c1` (racemic), for which, in test [1], the IC50 was greater than 100 µM.

As to `NC(=O)c1cccc(-c2cccc(OC(=O)NC3CCCCC3)c2)c1` [URB-597], the IC50 in test [3] is greater than 100000 nM; in test [1], greater than 100 µM.

Take `CC(C(=O)O)c1ccc(-c2ccccc2)c(F)c1` (stereo unspecified) [FLURBIPROFEN]: the IC50 in test [2] is greater than 100000 nM.

Turning to `CCCCCCNC(=O)Oc1cccc(-c2ccc(C(C)CO)cc2F)c1` (racemic), the IC50 in test [1] was greater than 100 µM; in test [2] it was 3 nM.

For `CCCCCCNC(=O)Oc1ccc(-c2ccc(C(C)C(=O)O)cc2F)cc1` (racemic), the IC50 is greater than 100000 nM in test [3], greater than 100 µM in test [1] and 68 nM in test [2].

`CCCCCCNC(=O)Oc1cccc(-c2ccc(C(C)C(=O)O)cc2[N+](=O)[O-])c1` (racemic): the IC50 in test [3] came out at 130 nM; in test [1], 0.93 µM; in test [2], 9 nM.

Take `CC(C(=O)O)c1ccc(-c2cccc(OC(=O)NC3CCC3)c2)c(F)c1` (racemic): the IC50 is 720 nM in test [3], greater than 100 µM in test [1] and 48700 nM in test [2].

For the compound `CCCCCCNC(=O)Oc1cccc(-c2ccc(C(C)C(=O)O)cc2N)c1` (racemic), the IC50 in test [3] turned out to be 220 nM; in test [1] it was 12.1 µM; in test [2], 49 nM.

As to `CC(C(=O)O)c1ccc(-c2cccc(OC(=O)NCC3CCCCC3)c2)c(F)c1` (racemic), in test [1], the IC50 is greater than 100 µM.

On to `CCCCCCNC(=O)Oc1cccc(-c2ccc(C(C)C(=O)O)cc2C(F)(F)F)c1` (racemic), for which the IC50 in test [3] turned out to be 10 nM; in test [1], 0.2 µM; in test [2], 5 nM.

`CC(C(=O)O)c1ccc(-c2cccc(OC(=O)NC3CCCCC3)c2)c(F)c1` (racemic): the IC50 in test [1] is greater than 100 µM.

On to `CC(C)NC(=O)Oc1cccc(-c2ccc(C(C)C(=O)O)cc2F)c1` (racemic), for which the values for the IC50 in test [3], in test [1] and in test [2] were 3900 nM, greater than 100 µM and greater than 100000 nM, respectively.

In the case of `CC(C(=O)O)c1ccc(-c2cccc(OC(=O)Nc3ccccc3)c2)c(F)c1` (racemic), the half-maximal inhibitory concentration (IC50) in test [3] came to 270 nM; in test [1], 2.7 µM; in test [2] it was 41200 nM.

In the case of `CCCCCCNC(=O)Oc1cccc(-c2ccc(C(C)C(=O)O)cc2Cl)c1` (racemic), the IC50 in test [3] came to 9 nM; in test [1], 0.73 µM; in test [2], 23 nM.

Consider `CCCCCCNC(=O)Oc1cccc(-c2ccc(C(C)C(=O)O)cc2)c1` (racemic), for which the figures for the IC50 in test [3], in test [1] and in test [2] were 54 nM, 0.69 µM and 3 nM, respectively.

For the compound `CCCCCCNC(=O)Oc1cccc(-c2ccc(C(C)C(=O)OC)cc2F)c1` (racemic), the IC50 is greater than 100000 nM in test [3], greater than 100 µM in test [1] and 52 nM in test [2].

On to `CCCCCCNC(=O)Oc1cccc(-c2ccc(C(=O)O)cc2F)c1`, for which the IC50 in test [3] was greater than 100000 nM; in test [1], greater than 100 µM; in test [2] it was 85 nM.
